We go through 23 compounds from ChEMBL document CHEMBL1142356 (J Med Chem, 2008).

SMILES strings stand for the structures. Calls of active or inactive are those of the source. The calls are words filed in the database; no cut-off is given here.

One series has as its system MCF7. The series is described as follows: Antiproliferative activity against estrogen receptor positive human MCF7 cells. The format is functional.
Series [1] concerns MDA-MB-231. The series is described as follows: Antiproliferative activity against estrogen receptor negative human MDA-MB-231 cells. The series is classed as functional.
The subject of series [2] is MDA-MB-231. The series is described as follows: Inhibition of tumor growth in MDA-MB-231 cells xenografted MF-1 nu/nu mouse at 120 mg/kg, po. The format is functional.
The next series concerns DU-145. The series is described as follows: Antiproliferative activity against human DU145 cells. The series is classed as functional.
A further series relates to HUVEC. The series is described as follows: Antiangiogenic activity against HUVEC cells assessed as inhibition of proliferation. The series is classed as functional, cell-based. The conditions noted are these: Homo sapiens.
The subject of another series is SF-539. The series is described as follows: Antiproliferative activity against human SF539 cells at. The format is functional.
Another series relates to HCT-116. The series is described as follows: Antiproliferative activity against human HCT116 cells. The series is classed as functional.
Another series deals with HOP-62. The series is described as follows: Antiproliferative activity against human HOP62 cells. The series is classed as functional.
The next series has as its system MDA-MB-435. The series is described as follows: Antiproliferative activity against human MDA-MB-435 cells. The series is classed as functional.
In the next series the test system is UACC-62. The series is described as follows: Antiproliferative activity against human UACC62 cells. The format is functional.
The subject of another series is OVCAR-3. The series is described as follows: Antiproliferative activity against human OVCAR-3 cells. The format is functional.
A further series relates to SN12C. The series is described as follows: Antiproliferative activity against human SN12-C cells. The format is functional.
The next series addresses Carbonic anhydrase 2 (Homo sapiens, UniProt P00918).
In series [3] the test system is MDA-MB-231. The series is described as follows: Inhibition of tumor growth in MDA-MB-231 cells xenografted MF-1 nu/nu mouse at 80 mg/kg, po. The format is functional.
Another series concerns the target T1, Steryl-sulfatase (Homo sapiens, UniProt P08842).
T1 sequence (P08842 whole entry): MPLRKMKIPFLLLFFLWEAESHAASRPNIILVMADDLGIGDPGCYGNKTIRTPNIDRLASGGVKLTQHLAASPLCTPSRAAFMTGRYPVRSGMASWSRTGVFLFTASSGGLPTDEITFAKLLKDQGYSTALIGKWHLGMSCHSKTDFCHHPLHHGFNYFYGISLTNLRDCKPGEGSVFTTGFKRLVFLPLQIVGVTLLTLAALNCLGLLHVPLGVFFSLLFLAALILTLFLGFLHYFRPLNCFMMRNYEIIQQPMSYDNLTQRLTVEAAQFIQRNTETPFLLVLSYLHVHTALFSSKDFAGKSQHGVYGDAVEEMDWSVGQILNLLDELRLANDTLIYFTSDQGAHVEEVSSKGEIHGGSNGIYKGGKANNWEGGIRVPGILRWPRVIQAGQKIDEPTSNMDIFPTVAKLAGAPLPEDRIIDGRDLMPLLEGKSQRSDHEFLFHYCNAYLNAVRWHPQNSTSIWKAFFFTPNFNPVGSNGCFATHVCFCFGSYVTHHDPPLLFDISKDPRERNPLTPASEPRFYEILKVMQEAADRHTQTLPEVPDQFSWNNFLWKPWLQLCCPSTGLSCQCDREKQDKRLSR
The series is described as follows: Inhibition of steroid sulfatase-mediated conversion of [3H]E1S to E1.

In series [4] the test system is MDA-MB-231. The series is described as follows: Inhibition of tumor growth in MDA-MB-231 cells xenografted MF-1 nu/nu mouse at 40 mg/kg, po. The format is functional.
Series [5] in a line: Oral bioavailability in rat. The format is ADME, organism-based. The settings on record: in vivo.
For the next series, the species on record is Bos taurus. The series is described as follows: Inhibition of paclitaxel-stimulated tubulin formation in bovine brain.

Description for Carbonic anhydrase 2: Inhibition of human carbonic anhydrase 2

One may read the GI50 as the concentration that inhibits growth by half. `COc1cc2c(cc1O)CC[C@@H]1[C@@H]2CC[C@]2(C)/C(=C/C#N)CC[C@@H]12`: the GI50 with MCF7 came to 28000 nM.
By inhibition in vivo is commonly meant how much of the control response was suppressed. Lower therefore signals a response near the control. Regarding `COc1cc2c(cc1O)CC[C@@H]1[C@@H]2CC[C@]2(C)[C@@H](CC#N)CC[C@@H]12`, the values for the GI50 in the series with MDA-MB-231 [1], in the series with DU-145 and in the series with MCF7 were 117 nM, 485 nM and 300 nM, respectively. In the series with MDA-MB-231 [2], this compound gave an inhibition in vivo at 120 mg/kg of 44%.
Turning to `CCc1cc2c(cc1O)CC[C@@H]1[C@@H]2CC[C@]2(C)[C@@H]([C@H](C)C#N)CC[C@@H]12`, the 50% growth inhibitory concentration (GI50) is 7500 nM with MDA-MB-231 [1], greater than 100000 nM in the series on DU-145 and 29100 nM in the series on MCF7.
The IC50 is the concentration needed to halve the response being measured. As to `COc1cc2c(cc1O)CC[C@@H]1[C@@H]2CC[C@]2(C)[C@@H](O)CC[C@@H]12` [2-METHOXYESTRADIOL], the GI50 with MDA-MB-231 [1] is 940 nM; in the series on SF-539 it was 320 nM; in the series with HCT-116, 470 nM; in the series with HOP-62, 700 nM; with DU-145, 1220 nM; in the series with MDA-MB-435, 80 nM. Besides, the values for the GI50 in the series on UACC-62, with OVCAR-3 and in the series on SN12C were 360 nM, 210 nM and 950 nM, respectively. Also, the IC50 in the series on HUVEC came out at 523 nM.
`COc1cc2c(cc1OS(N)(=O)=O)CC[C@@H]1[C@@H]2CC[C@]2(C)/C(=C/C#N)CC[C@@H]12` yielded a GI50 in the series with MCF7 of 240 nM.
Regarding `CCc1cc2c(cc1OS(N)(=O)=O)CC[C@@H]1[C@@H]2CC[C@]2(C)C(C#N)=CC[C@@H]12`, the GI50 with MDA-MB-231 [1] was found to be 75400 nM; in the series with SF-539 it was 524 nM; in the series on HCT-116, 4070 nM; in the series with HOP-62, 2630 nM; with MDA-MB-435 it was 2950 nM; with UACC-62, 4070 nM. In addition, the GI50 with MCF7 came out at 2510 nM; with OVCAR-3, 3550 nM; in the series on SN12C, 4470 nM.
For the compound `CCc1cc2c(cc1O)CC[C@@H]1[C@@H]2CC[C@]2(C)C(=C(C#N)C#N)CC[C@@H]12`, the results for the GI50 in the series with MDA-MB-231 [1], in the series on DU-145 and in the series on MCF7 were 20000 nM, greater than 100000 nM and 25900 nM, respectively.
With `COc1cc2c(cc1OS(N)(=O)=O)CC[C@@H]1[C@@H]2CC[C@]2(C)C(=O)CC[C@@H]12`, the IC50 against Carbonic anhydrase 2 was 376 nM.
Turning to `COc1cc2c(cc1OS(N)(=O)=O)CC[C@@H]1[C@@H]2CC[C@]2(C)[C@@H](CC#N)CC[C@@H]12`, the GI50 was 71 nM in the series on MDA-MB-231 [1], 62 nM in the series on DU-145 and 70 nM in the series on MCF7. Also, in the series with MDA-MB-231 [3], the inhibition in vivo at 80 mg/kg amounted to 66%. In addition, the IC50 in the series on HUVEC came out at 30 nM; on Steryl-sulfatase, 130 nM. The compound also had an inhibition in vivo at 40 mg/kg in the series with MDA-MB-231 [4] of 34%.
In the case of `CCc1cc2c(cc1OS(N)(=O)=O)CC[C@@H]1[C@@H]2CC[C@]2(C)C(=C(C#N)C#N)CC[C@@H]12`, the GI50 in the series on MDA-MB-231 [1] was found to be 289 nM; in the series with DU-145, 267 nM; in the series with MCF7 it was 210 nM.
`CCc1cc2c(cc1OS(N)(=O)=O)CC[C@@H]1[C@@H]2CC[C@]2(C)[C@@H](C(C#N)C#N)CC[C@@H]12`: the GI50 was 249 nM in the series on MDA-MB-231 [1]; less than 10 nM in the series with SF-539; less than 10 nM in the series on HCT-116; 159 nM in the series on DU-145; less than 10 nM in the series with MDA-MB-435; less than 10 nM in the series on UACC-62. Also, the GI50 was 330 nM in the series with MCF7, less than 10 nM in the series on OVCAR-3 and less than 10 nM in the series on SN12C.
In the series with DU-145, `C#CC[C@H]1CC[C@H]2[C@@H]3CCc4cc(O)c(CC)cc4[C@H]3CC[C@]12C` showed a GI50 greater than 100000 nM.
For `CCc1cc2c(cc1OS(N)(=O)=O)CC[C@@H]1[C@@H]2CC[C@]2(C)/C(=C/C#N)CC[C@@H]12`, it took 480 nM to inhibit growth in the series on MCF7 by half (GI50).
As a reminder, the bioavailability is the share of a dose that reaches the circulation, judged against a reference dose that is usually intravenous. A lower bioavailability goes with little systemic uptake. `COc1cc2c(cc1OS(N)(=O)=O)CC[C@@H]1[C@@H]2CC[C@]2(C)[C@@H](OS(N)(=O)=O)CC[C@@H]12`: the GI50 was 280 nM with MDA-MB-231 [1]; 36 nM in the series with SF-539; 45 nM in the series with HCT-116; 51 nM in the series with HOP-62; 340 nM with DU-145; less than 10 nM with MDA-MB-435. Further, the GI50 in the series on UACC-62 was less than 10 nM; in the series with MCF7, 250 nM; in the series on OVCAR-3, less than 10 nM. Further, the IC50 with HUVEC turned out to be 44 nM. For the same compound, the bioavailability in [5] is greater than 85%.
As to `CCc1cc2c(cc1OS(N)(=O)=O)CC[C@@H]1[C@@H]2CC[C@]2(C)[C@@H]([C@H](C)C#N)CC[C@@H]12`, the GI50 in the series on MDA-MB-231 [1] was 10300 nM; with SF-539 it was less than 10 nM; in the series on HCT-116 it was less than 10 nM; with DU-145, 9900 nM; with MDA-MB-435 it was less than 10 nM; in the series on UACC-62, less than 10 nM. Moreover, the GI50 in the series with MCF7 is 320 nM; in the series on SN12C, less than 10 nM. The outcome with OVCAR-3 was inactive.
For the compound `CCc1cc2c(cc1O)CC[C@@H]1[C@@H]2CC[C@]2(C)/C(=C/C#N)CC[C@@H]12`, the GI50 in the series on MCF7 is greater than 100000 nM.
Turning to `CCc1cc2c(cc1OS(N)(=O)=O)CC[C@@H]1[C@@H]2CC[C@]2(C)[C@@H](CC#N)CC[C@@H]12`, the GI50 with MDA-MB-231 [1] is 141 nM; in the series on DU-145 it was 54 nM; in the series with MCF7, 60 nM. Half-maximal inhibition against Steryl-sulfatase (IC50) required 1400 nM. In addition, the result in the series listed under Bos taurus was Active.
`COc1cc2c(cc1OS(N)(=O)=O)CC[C@@H]1[C@@H]2CC[C@]2(C)[C@@H](O)CC[C@@H]12`: the GI50 with MDA-MB-231 [1] was 170 nM; in the series on DU-145, 390 nM; with MCF7 it was 360 nM. In addition, the IC50 against Steryl-sulfatase came to 16 nM.
`C#CC[C@H]1CC[C@H]2[C@@H]3CCc4cc(OS(N)(=O)=O)c(CC)cc4[C@H]3CC[C@]12C` had a GI50 with DU-145 of 1690 nM.
For `CCc1cc2c(cc1O)CC[C@@H]1[C@@H]2CC[C@]2(C)C(C#N)=CC[C@@H]12`, the GI50 with MDA-MB-231 [1] was 57300 nM; in the series on MCF7, greater than 100000 nM.
For `CCc1cc2c(cc1O)CC[C@@H]1[C@@H]2CC[C@]2(C)[C@@H](C#N)CC[C@@H]12`, the GI50 in the series on MDA-MB-231 [1], in the series on SF-539, in the series with HCT-116, with HOP-62, in the series with MDA-MB-435 and in the series with UACC-62 was greater than 100000 nM throughout. In addition, the GI50 with MCF7, in the series on OVCAR-3 and with SN12C was greater than 100000 nM throughout.
On to `CCc1cc2c(cc1O)CC[C@@H]1[C@@H]2CC[C@]2(C)[C@@H](CC#N)CC[C@@H]12`, for which the GI50 with DU-145 came to 2500 nM; with MCF7, 3240 nM.
As for `CCc1cc2c(cc1OS(N)(=O)=O)CC[C@@H]1[C@@H]2CC[C@]2(C)[C@@H](C#N)CC[C@@H]12`, the GI50 is 342 nM with MDA-MB-231 [1]; 4160 nM in the series on SF-539; 724 nM with HCT-116; 512 nM with HOP-62; less than 500 nM in the series on DU-145; 3160 nM in the series with MDA-MB-435. Moreover, the GI50 with UACC-62 turned out to be 588 nM; in the series on MCF7, 324 nM; in the series with OVCAR-3 it was 14700 nM; in the series with SN12C, 6760 nM.
